According to ChEMBL document CHEMBL1201862, “PubChem BioAssay data set” (2004):
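These data come from cells grown in 96-well plates and exposed to compound for 48 hours at five concentrations. Here, GI50 denotes the concentration required for 50% inhibition of growth.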 The source made the active and inactive calls. Rule as the data show it: active = GI50 up to about 1.1 µM and inactive = higher.

Experiments:
Assay in all cases: growth of human tumour cells (NCI), 48 h
NCI-H23 = system: NCI-H23
UACC-257 = system: UACC-257
HL-60 = system: HL-60
OVCAR-4 = system: OVCAR-4
MDA-MB-231 = system: MDA-MB-231
MDA-MB-435 = system: MDA-MB-435
MOLT-4 = system: MOLT-4
K562 = system: K562
NCI-H522 = system: NCI-H522
CAKI-1 = system: CAKI-1
HCC 2998 = system: HCC 2998
T47D = system: T47D
SK-MEL-2 = system: SK-MEL-2
UACC-62 = system: UACC-62
786-0 = system: 786-0
OVCAR-3 = system: OVCAR-3
KM12 = system: KM12
ACHN = system: ACHN
LOX IMVI = system: LOX IMVI

Structure (SMILES) | GI50 (NCI-H23) | GI50 (UACC-257) | GI50 (HL-60) | GI50 (OVCAR-4) | GI50 (MDA-MB-231) | GI50 (MDA-MB-435) | GI50 (MOLT-4) | GI50 (K562) | GI50 (NCI-H522) | GI50 (CAKI-1) | GI50 (HCC 2998) | GI50 (T47D) | GI50 (SK-MEL-2) | GI50 (UACC-62) | GI50 (786-0) | GI50 (OVCAR-3) | GI50 (KM12) | GI50 (ACHN) | GI50 (LOX IMVI)
ClC(Cl)(Cl)C1CCOC1n1nc2ccccc2n1 (stereo not given) | > 100 µM (inactive) | > 100 µM (inactive) | 49.9 µM (inactive) | > 100 µM (inactive) | > 100 µM (inactive) | > 100 µM (inactive) | > 100 µM (inactive) | > 100 µM (inactive) | > 100 µM (inactive) | > 100 µM (inactive) | > 100 µM (inactive) | > 100 µM (inactive) | > 100 µM (inactive) | > 100 µM (inactive) | > 100 µM (inactive) | > 100 µM (inactive) | – | – | –
COc1cc2c(c(OC)c1)C(=O)O[C@H](C)CCCC/C=C/C2 | 11.2 µM (inactive) | 10.9 µM (inactive) | 0.824 µM (active) | 12.1 µM (inactive) | 10.9 µM (inactive) | 4.73 µM (inactive) | 7.31 µM (inactive) | 6.24 µM (inactive) | 8.09 µM (inactive) | 10.4 µM (inactive) | 15.8 µM (inactive) | 9.16 µM (inactive) | 12.1 µM (inactive) | 8.93 µM (inactive) | 10.9 µM (inactive) | 9.38 µM (inactive) | 9.35 µM (inactive) | 12.5 µM (inactive) | 4.73 µM (inactive)
NC(=O)C1=CC2C3C=CC2(O)C(=O)OC3O1 (stereo not given) | 2.91 µM (inactive) | 2.58 µM (inactive) | 1.5 µM (inactive) | 4.33 µM (inactive) | 7.64 µM (inactive) | 3.27 µM (inactive) | 1.88 µM (inactive) | 7.29 µM (inactive) | 1.83 µM (inactive) | 6.07 µM (inactive) | 12.2 µM (inactive) | 3.36 µM (inactive) | 3.57 µM (inactive) | 2.71 µM (inactive) | 3.63 µM (inactive) | 2.43 µM (inactive) | 2.94 µM (inactive) | 3.44 µM (inactive) | 2.14 µM (inactive)
O=S(=O)(/N=C(\NO)Nc1ccc(Cl)cc1)C1CC=C(c2ccon2)S1 (stereo not given) | 13.2 µM (inactive) | 12.5 µM (inactive) | 1.18 µM (inactive) | 3.52 µM (inactive) | 18.4 µM (inactive) | 8.91 µM (inactive) | 3.34 µM (inactive) | 7.1 µM (inactive) | 1.13 µM (inactive) | 2.39 µM (inactive) | 15.3 µM (inactive) | 12.5 µM (inactive) | 13.3 µM (inactive) | 24.5 µM (inactive) | 2.88 µM (inactive) | 22.5 µM (inactive) | 46.5 µM (inactive) | 13 µM (inactive) | 21 µM (inactive)
C=C(C)C(CC=C(C)C)Cc1c(O)cc(OC)c2c1OC(c1ccc(O)cc1O)C(O)C2=O (stereo not given) | 17.9 µM (inactive) | 17.7 µM (inactive) | > 100 µM (inactive) | 16.3 µM (inactive) | 18.6 µM (inactive) | 16.9 µM (inactive) | > 100 µM (inactive) | > 100 µM (inactive) | 18.9 µM (inactive) | 13.6 µM (inactive) | 16.8 µM (inactive) | 13.8 µM (inactive) | 19.5 µM (inactive) | 16.2 µM (inactive) | 16.6 µM (inactive) | 16.7 µM (inactive) | 12 µM (inactive) | 20.4 µM (inactive) | 20 µM (inactive)
C(/Cc1ccc2c(c1)OCO2)=N\N=C1NCCCN1 | > 100 µM (inactive) | > 100 µM (inactive) | 31.6 µM (inactive) | 98.9 µM (inactive) | > 100 µM (inactive) | > 100 µM (inactive) | 24.7 µM (inactive) | 35.1 µM (inactive) | 55.3 µM (inactive) | – | 41.7 µM (inactive) | 19.5 µM (inactive) | > 100 µM (inactive) | > 100 µM (inactive) | 78.2 µM (inactive) | 80.2 µM (inactive) | > 100 µM (inactive) | 28 µM (inactive) | 29.4 µM (inactive)
COC1=C[C@]2(CCC(=O)O2)[C@@H]2Cc3ccccc3[C@H](O)[C@@H]2C1=O | 40.3 µM (inactive) | 22.1 µM (inactive) | 25.7 µM (inactive) | 43.2 µM (inactive) | 34.6 µM (inactive) | 16.9 µM (inactive) | 17.9 µM (inactive) | 38.4 µM (inactive) | 21.7 µM (inactive) | 47.6 µM (inactive) | > 100 µM (inactive) | 13.1 µM (inactive) | 28.6 µM (inactive) | 24.8 µM (inactive) | 70.5 µM (inactive) | 28.5 µM (inactive) | > 100 µM (inactive) | 49.2 µM (inactive) | 28.7 µM (inactive)
Cc1ccc(Nc2nnc3n2S(=O)(=O)c2cc(C)c(Cl)cc2S3)cc1 | 8.95 µM (inactive) | 34.5 µM (inactive) | 3.48 µM (inactive) | 22.8 µM (inactive) | 13.4 µM (inactive) | 3.64 µM (inactive) | 4.25 µM (inactive) | 3.4 µM (inactive) | 2.18 µM (inactive) | 23 µM (inactive) | 18.2 µM (inactive) | 17.7 µM (inactive) | 3.91 µM (inactive) | – | 10.3 µM (inactive) | 2 µM (inactive) | 6.56 µM (inactive) | 27.9 µM (inactive) | 6.14 µM (inactive)
Cc1ccc(S(=O)(=O)N/C(=N\O)Nc2ccc(Cl)c(Cl)c2)cc1 | 15.7 µM (inactive) | 4.68 µM (inactive) | 1.87 µM (inactive) | 6.46 µM (inactive) | 9.98 µM (inactive) | 3.48 µM (inactive) | 1.98 µM (inactive) | 13 µM (inactive) | 4.47 µM (inactive) | 5.41 µM (inactive) | 2.14 µM (inactive) | 11.4 µM (inactive) | 10.2 µM (inactive) | 11.7 µM (inactive) | 4.6 µM (inactive) | 4.41 µM (inactive) | 11.2 µM (inactive) | 11.9 µM (inactive) | 4.11 µM (inactive)
O=c1oc2ccc3ccccc3c2cc1-c1nc2ccc([N+](=O)[O-])cc2o1 | 41.2 µM (inactive) | > 100 µM (inactive) | 34.7 µM (inactive) | 22.5 µM (inactive) | 43.6 µM (inactive) | > 58.3 µM (inactive) | > 67.6 µM (inactive) | > 62.1 µM (inactive) | 18.9 µM (inactive) | > 44.7 µM (inactive) | > 100 µM (inactive) | 66.8 µM (inactive) | > 64.9 µM (inactive) | 59 µM (inactive) | 12.4 µM (inactive) | > 100 µM (inactive) | > 59.2 µM (inactive) | 8.57 µM (inactive) | 22.9 µM (inactive)
CCOC(=O)/C(C#N)=C(/NS(=O)(=O)c1cc(C)c(Cl)cc1[S-])[n+]1ccc(N(C)C)cc1 | > 100 µM (inactive) | > 100 µM (inactive) | > 100 µM (inactive) | > 100 µM (inactive) | > 100 µM (inactive) | > 100 µM (inactive) | > 100 µM (inactive) | > 100 µM (inactive) | > 100 µM (inactive) | > 100 µM (inactive) | > 100 µM (inactive) | > 100 µM (inactive) | > 100 µM (inactive) | > 100 µM (inactive) | > 100 µM (inactive) | > 100 µM (inactive) | > 100 µM (inactive) | > 100 µM (inactive) | –
CNC(=O)N1CN(c2ccccc2)C2(CCN(CCCC3(c4ccc(F)cc4)OCCO3)CC2)C1=O | > 100 µM (inactive) | – | > 100 µM (inactive) | > 100 µM (inactive) | > 100 µM (inactive) | > 100 µM (inactive) | > 100 µM (inactive) | > 100 µM (inactive) | > 100 µM (inactive) | > 100 µM (inactive) | > 100 µM (inactive) | > 100 µM (inactive) | > 100 µM (inactive) | > 100 µM (inactive) | > 100 µM (inactive) | > 100 µM (inactive) | > 100 µM (inactive) | > 100 µM (inactive) | > 100 µM (inactive)
O=C(CCNC12CC3CC(CC(C3)C1)C2)c1ccccc1 | 20.1 µM (inactive) | 15.3 µM (inactive) | 10.3 µM (inactive) | 36.8 µM (inactive) | 13.4 µM (inactive) | 26.5 µM (inactive) | 13.1 µM (inactive) | 14.3 µM (inactive) | 17.3 µM (inactive) | > 10 µM (inactive) | 13.3 µM (inactive) | 20.6 µM (inactive) | 15.9 µM (inactive) | 19.6 µM (inactive) | 16.3 µM (inactive) | > 10 µM (inactive) | 23.6 µM (inactive) | 25.9 µM (inactive) | –
[O-][S+](Nc1ccccc1)c1ccc(Cl)c(Cl)c1 (stereo not given) | 54.5 µM (inactive) | 62.2 µM (inactive) | 36.9 µM (inactive) | 47.9 µM (inactive) | 40.9 µM (inactive) | 24.2 µM (inactive) | 23.7 µM (inactive) | 39.9 µM (inactive) | 21.9 µM (inactive) | – | 27.3 µM (inactive) | 10.3 µM (inactive) | 33.3 µM (inactive) | 25.8 µM (inactive) | 53.8 µM (inactive) | 63.2 µM (inactive) | 14.7 µM (inactive) | 62.5 µM (inactive) | 38.8 µM (inactive)
OCCSCc1cc2c(O)c(c1)Cc1cc(CSCCO)cc(c1O)Cc1cc(CSCCO)cc(c1O)Cc1cc(CSCCO)cc(c1O)C2 | 5.37 µM (inactive) | 4.23 µM (inactive) | 4.04 µM (inactive) | 3.61 µM (inactive) | 2.54 µM (inactive) | 2.83 µM (inactive) | 3.35 µM (inactive) | 7.28 µM (inactive) | 2.18 µM (inactive) | 3.1 µM (inactive) | 9.38 µM (inactive) | 6.47 µM (inactive) | 2.32 µM (inactive) | – | 3.29 µM (inactive) | 1.73 µM (inactive) | 4.28 µM (inactive) | 3.19 µM (inactive) | 3.44 µM (inactive)
